Assay results published in patent US11535633B2, “Fused tricyclic heterocycle compounds and therapeutic uses thereof” (Jiangsu Hengrui Medicine Co., Ltd., priority 2018, dated 2022).

Assays:
[1] = molecular target: T1, hSTING c-terminal domain (purified hSTING aa154-342) (Homo sapiens, UniProt Q86WV6); assay: Thermal shift assay for measuring the relative binding affinity to hSTING c-terminal domain; conditions: Tm of sample minus mean Tm of negative control (buffer, 2% DMSO), SYPRO Orange
T1 construct: Purified hSTING (aa154-342)
T1 sequence (Q86WV6 154-342): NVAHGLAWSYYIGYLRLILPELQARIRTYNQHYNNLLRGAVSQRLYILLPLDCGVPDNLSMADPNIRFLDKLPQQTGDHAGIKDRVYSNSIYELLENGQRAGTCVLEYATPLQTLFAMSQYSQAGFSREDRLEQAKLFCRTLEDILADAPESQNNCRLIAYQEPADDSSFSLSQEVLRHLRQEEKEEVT
Experimental: Test Example 1. Thermal Shift Assay for Measuring the Relative Binding Affinity to hSTING c-Terminal Domain
From each of the 10 mM stock solutions of compounds in DMSO, dilutions are made to create samples with three concentrations 10 mM, 5 mM and 2.5 mM. From these dilutions a final 50 fold dilution is made into assay buffer, giving concentrations of 200 μM, 100 μM, and 50 μM. From each of the buffer dilutions, 5 μL is added to the 384 well assay plate. A positive control is setup with cGAMP using the same dilution scheme as the ligands. A baseline thermal shift for the negative control is determined using buffer and 2% DMSO.
An aliquot of protein is thawed on ice and SYPRO orange reagent is brought to room temperature. The 5000× SYPRO orange stock is diluted in assay buffer to a concentration of 10×. Protein is diluted to a concentration of 10 μM in the prepared buffer/dye solution. Five micro-liters of protein/buffer/dye solution is added to each of the sample and control wells, and the plate is sealed with the provided films. The plate is centrifuged for 5 min at 20° C. at 1000 rpm.
On the Light Cycler instrument, measurements are made over a temperature gradient from 20° C. to 99° C. at 0.07° C./s and data acquisitions collected at a rate of 8/° C. is used to measure the change in fluorescence as a function of temperature. Data analysis is performed using the Roche Light Cycler Software to determine the melting temperature (Tm ° C.) of each sample. A mean Tm ° C. for the negative control is calculated and subtracted from each of the samples to generate the ΔTm ° C. values for each of the ligands.
The relative binding affinity to hSTING c-terminal domain of the compounds of the present invention was determined by the above assay, and ΔTm ° C. values are shown in the following table 1.

Human PBMC cells = assay: IFNβ secretion in human PBMC; type: cell-based; conditions: IFNβ in supernatant by ELISA, 5 hours incubation
Experimental: Test Example 3. IFNβ Secretion in Human PBMC
• 1. Human PBMC cells (STEMCELL Technologies) • 2. Lymphocyte Medium (Zenbio) • 3. Culture and compound dilution media: RPMI with high glucose and glutamine (Genesee, Cat. #25-506), 10% fetal bovine serum (Life Technologies, Cat. #10082147), 100 μg/ml Normocin (InvivoGen, Cat. #ant-nr-2) and Penicillin-Streptomycin (100×) (Life Technologies, Cat. #15140122) • 4. Human IFNβ Quantikine ELISA kit (R&D systems) • 5. Infinite M1000 plate reader (TECAN) Experimental Procedure
Cryopreserved peripheral blood human mononuclear cells (PBMCs) were rapidly thawed and resuspended in Lymphocyte Media and centrifuged at 500×g for 5 minutes. The supernatant was removed and the cell pellets were gently resuspended in cell culture and compound dilution media. Human PBMC cells were plated in a 96-well format at a concentration of 1.5×10^5 cells per well. The test compounds, at varying concentrations, or vehicle control (<0.3% DMSO) were mixed with the cells giving a final volume of 150 μl per well. The plates were incubated for 5 hours in a humidified, 5% CO2 incubator at 37° C. After incubation, the human IFNβ in the supernatant and the IFNβ standard controls were measured using human IFNβ Quantikine ELISA kit according to the manufacturer's protocol. The absorbance at 450 nm was measured with Infinite M1000 plate reader and corrected by background reading at 540 nm of each well. The amount of […] based on the standard curves. The plot of IFNβ concentration versus the log of compound concentration was fit in GraphPad Prism with a 4-parameter concentration response equation to calculate EC50 and Emax.

[2] = molecular target: T2, STING in THP1-Dual KI-hSTING-R232 cells (Homo sapiens, UniProt Q86WV6, H232R); assay: Human THP1 reporter cell assay (IRF luciferase reporter); type: cell-based; conditions: 24 hours incubation
T2 construct: host or cells: THP1-Dual KI-hSTING-R232 cells (human monocytic THP-1 reporter line)
T2 sequence (Q86WV6 whole entry H232R): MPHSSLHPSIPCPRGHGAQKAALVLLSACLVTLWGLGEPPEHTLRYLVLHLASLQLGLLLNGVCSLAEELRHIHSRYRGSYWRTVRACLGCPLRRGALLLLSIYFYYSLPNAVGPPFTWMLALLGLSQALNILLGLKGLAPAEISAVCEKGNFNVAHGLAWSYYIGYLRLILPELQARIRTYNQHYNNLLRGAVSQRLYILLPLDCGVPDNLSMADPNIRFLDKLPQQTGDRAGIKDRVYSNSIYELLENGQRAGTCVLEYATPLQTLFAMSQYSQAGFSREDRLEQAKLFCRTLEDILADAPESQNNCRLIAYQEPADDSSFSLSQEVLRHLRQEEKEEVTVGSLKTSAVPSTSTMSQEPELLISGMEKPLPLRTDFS
Experimental: Test Example 2. Human THP1 Reporter Cell Assay
• 1. Human THP1-Dual KI-hSTING-R232 Cells (InvivoGen, Cat. #thpd-r232) • 2. QUANTI-LUC (InvivoGen, Cat. #rep-qlc2) • 3. Media for cell culture and compound dilution: RPMI with high glucose and glutamine (Genesee, Cat. #25-506), 10% fetal bovine serum (Life Technologies, Cat. #10082147), 25 mM HEPES (Genesee, Cat. #25-534), 100 μg/ml Normocin (InvivoGen, Cat. #ant-nr-2), 10 μg/ml blasticidin (InvivoGen, Cat. #ant-bl-05), 100 μg/ml Zeocin (InvivoGen, Cat. #ant-zn-5p) and Penicillin-Streptomycin (100×) (Life Technologies, Cat. #15140122) • 4. Infinite M1000 plate reader (TECAN) Experimental Procedure
Activation of STING in THP1-Dual KI-hSTING-R232 cells was determined by measuring the luminescence signal resulting from the expression of the IRF luciferase reporter gene. All reagent preparation and assay procedures were conducted according to the protocols provided by InvivoGen. In brief, test compounds and cells (1×10^5 cells per well) were dispensed into 96-well plates with a final volume per well of 150 μl. Plates were incubated in a humidified, 5% CO2 incubator at 37° C. for 24 hours. The expression level of the reporter gene was measured by transferring 20 μl of the supernatant to a non-transparent 96-well plate to which 50 μl of QUANTI-LUC was dispensed into each well. The resulting luminescence signal was immediately read using a TECAN plate reader. The background luminescence signal from media was subtracted. The fold induction effect of the luminescence signal at each compound concentration was determined relative to controls that lack compound treatment. The plot of fold induction effect versus the log of compound concentration was fit in GraphPad Prism with a 4-parameter concentration response equation to calculate EC50 and Emax.
Activation of STING in THP1 of the compounds in the present invention was determined by the above assay, and EC50 values are shown in the following table 2.

Question: `C=CC[C@H]1COc2cc(C(N)=O)cc3nc(NC(=O)c4cc(C)nn4CC)n1c23` [Example 1, (S)-3-allyl-2-(1-ethyl-3-methyl-1H-pyrazole-5-carboxamido)-3,4-dihydro-5-oxa-1,2a-diazaacenaphthylene-7-carboxamide] was tested. Which ΔTm at 100 µM [1] did it give?
Answer: The ΔTm at 100 µM was 5.7 °C.

Question: And the EC50 (Human PBMC cells)?
Answer: Its EC50 is 1100 nM.

Question: And the EC50 [2]?
Answer: Its EC50 is 1600 nM.
